The values below come from patent US20090118471A1, “NOVEL COUMARIN DERIVATIVES” (The University of Tokyo, priority 2006, published 2009).

Molecules are shown by their SMILES. Counter-ions that a name gives are not always drawn.

A short description of series [1]: Fluorescence intensity after reaction with peptides containing two neighboring cysteine residues. It is filed as physicochemical. The settings on record: 5 μmol/L; after reaction with peptides containing two neighboring cysteine residues in the same molecule; sodium phosphate buffer pH 7.4, 0.5% DMSO. As for the experimental part: (§1) Compound 8 at a concentration of 5 μmol/L was added with N-acetylcysteine (NAC), Ac-AECACRA-OH peptide, or Ac-AECAACRA-OH peptide (C-terminus is carboxyl group, N-terminus is acetyl group (Ac), and amino acids are represented by the single letter codes), and fluorescence intensity was measured. For the reaction mixture, a 100 mmol/L sodium phosphate buffer (pH=7.4, containing 0.5% dimethyl sulfoxide as a cosolvent) was used.

Series [2] is described as follows: Fluorescence intensity after reaction with N-acetylcysteine. The format is physicochemical. The settings on record: 5 μmol/L; after reaction with one molecule of cysteine (NAC); sodium phosphate buffer pH 7.4, 0.5% DMSO. As for the experimental part: as §1
For series [3] the following is noted: in 0.1 mol/L sulfuric acid solution; value taken as standard; cited from earlier work.

Regarding `O=C(Cc1cc(=O)oc2cc(O)ccc12)NC1CC(N2C(=O)C=CC2=O)CC(N2C(=O)C=CC2=O)C1` (stereo not drawn) [Compound 8], the Fluorescence entry is “intensely fluorescent adducts” in series [1] and “substantially non-fluorescent” in series [2].

Regarding `C=C[C@H]1C[N@@]2CC[C@H]1C[C@H]2[C@H](O)c1ccnc2ccc(OC)cc12` [quinine sulfate], the “Fluorescence quantum yield (reference standard)” value in series [3] is recorded as 0.577.
